Measured values as given in patent US20240024279A1, “METHODS FOR REDUCING THE WEIGHT LOSS OR INCREASING THE WEIGHT OF A FELINE IN NEED THEREOF” (INCREVET, INC., priority 2019, published 2024).
“Also recorded” adds a separate entry of the source.

Tests used:
[1] = test system: experimental diabetes in cats; settings: cats with experimental diabetes, subcutaneous injection of a suspension in olive oil; cited from earlier work
[2] = test system: experimental diabetes in dogs; settings: pancreatectomized animals in full glycosuria; cited from earlier work
[3] = most species; cited from earlier work
[4] = test system: healthy purpose-bred cats; assay: Urinary glucose excretion in healthy purpose-bred cats after once-daily oral velagliflozin capsules for three days; format: in vivo, cat; settings: gelatin capsules once a day for three days, urine
Procedure: Velagliflozin (2-(4-cyclopropylbenzyl)-4-((2S,3R,4R,5S,6R)-3,4,5-trihydroxy-6-(hydroxymethyl)tetrahydro-2H-pyran-2-yl)benzonitrile, CAS number 946525-65-1; Compound 1) can be prepared by a variety of means, including as described in US2015/0164856A1 and is commercially available, for example as catalog number HY-109018 from MedChemExpress. Velagliflozin formulated in gelatin capsules was administered to healthy purpose-bred cats once a day for three days and the urinary glucose excretion recorded over the three consecutive 24-hour periods following dosing. Velagliflozin was administered at three dose levels: 1 mg, 3 mg and 10 mg per cat per day. The mean daily glucose excretion over three days was 2527 mg, 3601 mg and 5256 mg for mean dosages of 0.318 mg/kg, 0.953 mg/kg and 3.071 mg/kg, respectively.

[5] = test system: client-owned cats diagnosed with diabetes mellitus; assay: Field effectiveness study in client-owned cats with diabetes mellitus; format: in vivo, cat; settings: diabetic cats, oral once daily, day 0 to day 56, low-carbohydrate diet
Procedure: In a field effectiveness study, client-owned cats diagnosed with diabetes mellitus based on: i) two separate fasting (>6 h) blood glucose measurements >250 mg dL^−1; ii) glucosuria; iii) fructosamine >25% above the upper limit of normal for the testing laboratory, and iv) one or more of the following: polyuria/polydipsia, polyphagia and/or weight loss (documented in the cat's medical records) can be enrolled. Cats with suspected diabetes mellitus can be evaluated during visit 1 (within 7 days prior to day 0). Eligible cats can be enrolled during visit 2 (day 0) and management can be initiated using velagliflozin administered orally once daily. Cats can be prescribed a low-carbohydrate diet. Cats would return to the clinic for evaluation of glycemic control during visits 3 (day 14±3), 4 (day 28±3), and 5 (day 56±3). […] A cat can be brought back to the clinic at any time for unscheduled visits if such visits are determined to be necessary by the owner or investigator. Eight-hour blood glucose curves (blood samples collected every 2 h±15 min for 8 h) can be conducted at every visit starting with visit 2 (day 0) and blood glucose can be measured using an AlphaTRAK 2 glucometer (Abbott Laboratories). […] A central laboratory would be used to evaluate all clinical pathology samples (blood, serum, and urine) that are not analyzed in the clinic for blood glucose curves. […]

obese cats = settings: velagliflozin group, 1 mg/kg in gelatin capsules, cited from earlier work

Structure (SMILES)	effect on hyperglycemia [1]	effect on hyperglycemia [2]	half-life [3]	mean daily glucose excretion over three days ([4]; 1 mg per cat per day, mean dosage 0.318 mg/kg) [mg]	mean daily glucose excretion over three days ([4]; 3 mg per cat per day, mean dosage 0.953 mg/kg) [mg]	mean daily glucose excretion over three days ([4]; 10 mg per cat per day, mean dosage 3.071 mg/kg) [mg]	body weight change [5]	owner-evaluated clinical signs (polydipsia, polyphagia, polyuria) [5]	body weight at end of treatment (obese cats; after the course of treatment) [kg]	food intake at end of treatment (obese cats; after the course of treatment) [g]	body weight at start of treatment (obese cats; before treatment) [kg]	food intake at start of treatment (obese cats; before treatment) [g]
O=C(CCc1ccc(O)cc1)c1c(O)cc(O)cc1O[C@@H]1O[C@H](CO)[C@@H](O)[C@H](O)[C@H]1O [phlorizin]	dramatic reduction of hyperglycemia	the hyperglycemia disappears	short half-life	–	–	–	–	–	–	–	–	–
N#Cc1ccc([C@@H]2O[C@H](CO)[C@@H](O)[C@H](O)[C@H]2O)cc1Cc1ccc(C2CC2)cc1 [Velagliflozin, 2-(4-cyclopropylbenzyl)-4-((2S,3R,4R,5S,6R)-3,4,5-trihydroxy-6-(hydroxymethyl)tetrahydro-2H-pyran-2-yl)benzonitrile]	–	–	–	2527	3601	5256	Weight gain and reduction in weight loss; also recorded: increase the average weight of a cat or reduce the weight loss of a cat	improvement in polydipsia, polyphagia and polyuria	7.0 ± 1.4	58 ± 11	7.2 ± 1.5	57 ± 8
